This experiment deals with AMPA receptors. Kind of experiment: AMPA ES Cell FLIPR Screen (AMPA Potentiator Assay). It counts as cell-based, murine. Particulars: for EC50: ES cell-derived neurons, FLIPR (Fluo-4), 32 μM AMPA challenge, values marked * are the geometric mean of 2-5 EC50 determinations. The text has this:
Growth and Maintenance of ES Cells
Murine ES cell line E14, with a targeted mutation in the Sox1 gene and a neuroectodermal marker that offers G418 resistance when the Sox1 gene is expressed (Stem Cell Sciences, West Mains Road, Edinburgh, Scotland EH9 3JQ) may be used in all experiments. ES cells may be maintained undifferentiated as previously described (Methods For The Isolation And Maintenance Of Murine Embryonic Stem Cells; Roach-M-L, McNeish-J-D., Methods in Molecular Biology, 185, 1-16 (2002)). Briefly, ES cells may be grown in stem cell culture media comprising a base medium of Knockout™ D-MEM (Invitrogen 5791 Van Allen Way, Carlsbad, Calif. USA 92008), supplemented with 15% ES qualified Fetal Bovine Serum (FBS) (Invitrogen), 0.2 mM L-Glutamine (Invitrogen), 0.1 mM MEM non-essential amino acids (Invitrogen), 30 μg/ml Gentamicin […] (Invitrogen), 1000 U/ml ESGRO™ (CHEMICON International, Inc., 28820 Single Oak Drive, Temecula, Calif. 92590) and 0.1 mM 2-mercaptoethanol (Sigma, 3050 Spruce St., St. Louis, Mo. 63103). ES cells may then be plated on gelatin-coated dishes (BD Biosciences, 2350 Qume Drive, San Jose, Calif. 95131), wherein the media is changed daily and the cells dissociated with 0.05% Trypsin EDTA (Invitrogen) every other day.
Neural In Vitro Differentiation of ES Cells
Embryoid Body Formation: Prior to embryoid body (EB) formation the ES cells may be weaned from FBS onto Knockout Serum Replacement™ (KSR) (Invitrogen). To form EBs, ES cells may be dissociated into a single cell suspension, then 3×10^6 cells plated in bacteriology dishes (Nunc 4014) and grown as a suspension culture in NeuroEB-I medium that consisted of Knockout™ D-MEM (Invitrogen), supplemented with 10% KSR (Invitrogen), 0.2 mM L-Glutamine (Invitrogen), 0.1 mM MEM non-essential amino acids (Invitrogen), 30 μg/ml Gentamicin (Invitrogen), 1000 U/ml ESGRO™ (CHEMICON International, Inc.), 0.1 mM 2-mercaptoethanol (Sigma) and 150 ng/ml Transferrin (Invitrogen). The plates may then be put on a Stovall Belly Button™ shaker in an atmospheric oxygen incubator. The media may be changed on day 2 of EB formation with NeuroEB-I and on day 4 with NeuroEB-II (NeuroEB-I plus 1 μg/ml mNoggin (R&D Systems, 614 McKinley Place N.E. Minneapolis, Minn. 55413)
Neuronal Precursor Selection and Expansion: On day 5 of EB formation, EBs may be dissociated with 0.05% Trypsin EDTA, and 4×10^6 cells/100 mm dish may then be plated on Laminin coated tissue culture dishes in NeuroEB-II-G418 medium that consisted of a base medium of a 1:1 mixture of D-MEM/F12 supplemented with N2 supplements and NeuroBasal Medium supplemented with B27(I ASSUME THIS IS THE VITAMIN) supplement and 0.1 mM L-Glutamine (all from Invitrogen). The base medium may then be supplemented with 10 ng/ml bFGF (Invitrogen), 1 μg/ml mNoggin, 500 ng/ml SHH-N (IS THIS SONIC HEDGEHOG FROM ProSpecBio Rehovot Science Park, P.O. BOX 398, Rehovot 76103, Israel), 100 ng/ml FGF-8b (R&D Systems), 1 μg/ml Laminin and 200 μg/ml G418 (Invitrogen) for selection of neuronal precursors expressing Sox-1. The plates may then be put in an incubator containing 2% oxygen and maintained in these conditions. During the 6-day selection period, the NeuroEB-II ([…]) media should be changed daily. On day 6, the surviving neuronal precursor foci may then be dissociated with 0.05% Trypsin EDTA and the cells plated at a density of 1.5×10^6 cells/100 mm Laminin coated dish in Neuroll ([…])-G418 medium. The cells may then be dissociated every other day for expansion, and prepared for cryopreservation at passage 3 or 4. The cryopreservation medium typically contains 50% KSR, 10% dimethyl sulfoxide (DMSO) (Sigma) and 40% Neurol([…])-G418 medium. Neuronal precursors may be cryopreserved at a concentration of 4×10^6 cells/ml and 1 ml/cryovial in a controlled rate freezer overnight then transferred to an ultra-low freezer or liquid nitrogen for long-term storage. […]

For orientation: EC50 means the concentration that produces a half-maximal response.

On to `CC(C)S(=O)(=O)N[C@H]1COC[C@H]1Oc1ccc(-c2ccccc2C#N)cc1` [Example 3, N-{(3S,4S)-4-[(2′-cyanobiphenyl-4-yl)oxy]tetrahydrofuran-3-yl}propane-2-sulfonamide], for which the EC50 was found to be 21.7 nM.

For `CC(C)S(=O)(=O)N[C@H]1COC[C@H]1Oc1ccc(-c2ccc(C#N)s2)cc1` [Example 4, N-{(3S,4S)-4-[4-(5-cyano-2-thienyl)phenoxy]tetrahydrofuran-3-yl}propane-2-sulfonamide], the EC50 is 1790 nM.

In the case of `CC(C)S(=O)(=O)N[C@H]1CCC[C@H]1Oc1ccc(-c2ccccc2C#N)cc1` [Example 5, N-{(1S,2R)-2-[(2′-cyanobiphenyl-4-yl)oxy]cyclopentyl}propane-2-sulfonamide], the EC50 was 535 nM. Where the note is “title compound versus its enantiomer prepared from the (1R,2S) bromide”, the “potency compared with its enantiomer” value is recorded as “significantly more potent than its enantiomer”.

Turning to `CC(C)S(=O)(=O)N[C@H]1CCC[C@H]1Oc1ccc(-c2ccc(C#N)s2)cc1` [Example 6, N-{(1S,2R)-2-[4-(5-cyano-2-thienyl)phenoxy]cyclopentyl}propane-2-sulfonamide], the EC50 worked out at 1540 nM.

As to `CC(C)S(=O)(=O)N[C@H]1CCCC[C@H]1Oc1ccc(-c2ccccc2C#N)cc1` [Example 7, N-{(1S,2R)-2-[(2′-cyanobiphenyl-4-yl)oxy]cyclohexyl}propane-2-sulfonamide], the EC50 was 157 nM. Further, the “biological activity improved over that of its enantiomer” value (title compound versus its enantiomer) is recorded as over 150 times.

As to `CC(C)S(=O)(=O)N[C@H]1COC[C@H]1Oc1ccc(-c2ccc(O)cc2)cc1` [Example 18, N-{(3S,4S)-4-[(4′-hydroxybiphenyl-4-yl)oxy]tetra hydrofuran-3-yl}propane-2-sulfonamide], the EC50 amounted to 1180 nM.

Regarding `CCOc1cc(F)ccc1-c1ccc(O[C@@H]2COC[C@@H]2NS(=O)(=O)C(C)C)cc1` [Example 19, N-{(3S,4S)-4-[(2′-ethoxy-4′-fluorobiphenyl-4-yl)oxy]tetra hydrofuran-3-yl}propane-2-sulfonamide], the EC50 came out at 248 nM.

For the compound `Cc1cc(F)ccc1-c1ccc(O[C@@H]2COC[C@@H]2NS(=O)(=O)C(C)C)cc1` [Example 20, N-{(3S,4S)-4-[(4′-fluoro-2′-methylbiphenyl-4-yl)oxy]tetra hydrofuran-3-yl}propane-2-sulfonamide], the EC50 was 729 nM.

Consider `CC(C)S(=O)(=O)N[C@H]1COC[C@H]1Oc1ccc(-c2ccc(F)cc2F)cc1` [Example 21, N-{(3S,4S)-4-[(2′,4′-difluorobiphenyl-4-yl)oxy]tetra hydrofuran-3-yl}propane-2-sulfonamide], for which the EC50 stood at 239 nM.

With `CC(C)S(=O)(=O)N[C@H]1COC[C@H]1Oc1ccc(-c2cncnc2)cc1` [Example 22, N-[(3S,4S)-4-(4-pyrimidin-5-ylphenoxy)tetrahydrofuran-3-yl]propane-2-sulfonamide], the EC50 worked out at 861 nM.

With `CCOc1ccccc1-c1ccc(O[C@@H]2CCC[C@@H]2NS(=O)(=O)C(C)C)cc1` [Example 25, N-{(1S,2R)-2-[(2′-ethoxybiphenyl-4-yl)oxy]cyclopentyl} propane-2-sulfonamide], the EC50 turned out to be 2960 nM.

Consider `CC(C)S(=O)(=O)N[C@H]1CCC[C@H]1Oc1ccc(-c2ccccc2)cc1` [Example 26, N-[(1S,2R)-2-(biphenyl-4-yloxy)cyclopentyl] propane-2-sulfonamide], for which the EC50 was found to be 1120 nM.

As for `CC(C)S(=O)(=O)N[C@H]1CCC[C@H]1Oc1ccc(N2CCCC2)cc1` [Example 27, N-[(1S,2R)-2-(4-pyrrolidin-1-ylphenoxy)cyclopentyl] propane-2-sulfonamide], the EC50 amounted to 857 nM.

In the case of `CC(C)S(=O)(=O)N[C@H]1CCC[C@H]1Oc1ccc(-c2ccc(C(=O)O)cc2C#N)cc1` [Example 28, 2-cyano-4′-({(1R,2S)-2-[(isopropylsulfonyl)amino]cyclopentyl}oxy) biphenyl-4-carboxylic acid], the EC50 came out at 651 nM.

With `CC(C)S(=O)(=O)N[C@H]1CCC[C@H]1Oc1ccc(-c2ccccc2)c(F)c1` [Example 29, N-{(1S,2R)-2-[(2-fluorobiphenyl-4-yl)oxy]cyclopentyl} propane-2-sulfonamide], the EC50 is 521 nM.

Regarding `CC(C)S(=O)(=O)N[C@H]1CCC[C@H]1Oc1ccc(-c2ccc(F)cc2C#N)c(F)c1` [Example 30, N-{(1S,2R)-2-[(2′-cyano-2,4′-difluorobiphenyl-4-yl)oxy]cyclopentyl}propane-2-sulfonamide], the EC50 came to 349 nM.

For `CCOc1ccccc1-c1ccc(O[C@@H]2CCC[C@@H]2NS(=O)(=O)C(C)C)cc1F` [Example 31, N-{(1S,2R)-2-[(2′-ethoxy-2-fluorobiphenyl-4-yl)oxy]cyclopentyl} propane-2-sulfonamide], the EC50 is 327 nM.

Turning to `CC(C)S(=O)(=O)N[C@H]1CCC[C@H]1Oc1ccc(-c2ccc(C#N)s2)c(F)c1` [Example 32, N-{(1S,2R)-2-[4-(5-cyano-2-thienyl)-3-fluorophenoxy]cyclopentyl} propane-2-sulfonamide], the EC50 came to 1400 nM.

As for `CC(C)S(=O)(=O)N[C@H]1CCC[C@H]1Oc1ccc(-c2cccc(C(=O)NC3CC3)c2)c(F)c1` [Example 33, N-cyclopropyl-2′-fluoro-4′-({(1R,2S)-2-[(isopropylsulfonyl)amino]cyclopentyl}oxy) biphenyl-3-carboxamide], the EC50 was found to be 623 nM.

Regarding `CC(C)S(=O)(=O)N[C@H]1CCC[C@H]1Oc1ccc(-c2ccc(CCNS(C)(=O)=O)cc2)c(F)c1` [Example 34, N-{(1S,2R)-2-[(2-fluoro-4′-{2-[(methylsulfonyl)amino]ethyl}biphenyl-4-yl)oxy]cyclopentyl} propane-2-sulfonamide], the EC50 worked out at 3220 nM.

Take `CC(C)S(=O)(=O)N[C@H]1CCCC[C@H]1Oc1ccc(-c2ccccc2C#N)c(F)c1` [Example 35, N-{(1S,2R)-2-[(2′-cyano-2-fluorobiphenyl-4-yl)oxy]cyclohexyl} propane-2-sulfonamide]: the EC50 was determined as 525 nM.

As for `CC(C)S(=O)(=O)N[C@H]1CCCC[C@H]1Oc1ccc(-c2ccc(F)cc2C#N)c(F)c1` [Example 36, N-{(1S,2R)-2-[(2′-cyano-2,4′-difluorobiphenyl-4-yl)oxy]cyclohexyl} propane-2-sulfonamide], the EC50 was found to be 1610 nM.

Regarding `CC(C)S(=O)(=O)N[C@H]1CCCC[C@H]1Oc1ccc(-c2ccc(C#N)s2)c(F)c1` [Example 37, N-{(1S,2R)-2-[4-(5-cyano-2-thienyl)-3-fluorophenoxy]cyclohexyl} propane-2-sulfonamide], the EC50 amounted to 1720 nM.

On to `CC(C)S(=O)(=O)N[C@H]1CCCC[C@H]1Oc1ccc(N2CCCC2)cc1` [Example 38, N-[(1S,2R)-2-(4-pyrrolidin-1-ylphenoxy)cyclohexyl] propane-2-sulfonamide], for which the EC50 worked out at 327 nM.

For the compound `CCOc1ccccc1-c1ccc(O[C@@H]2CCCC[C@@H]2NS(=O)(=O)C(C)C)cc1` [Example 39, N-{(1S,2R)-2-[(2′-ethoxybiphenyl-4-yl)oxy]cyclohexyl} propane-2-sulfonamide], the EC50 was found to be 1420 nM.

`CC(C)S(=O)(=O)N[C@H]1CCCC[C@H]1Oc1ccc(-c2ccccc2OCC(F)(F)F)nc1` [Example 40, N-[(1S,2R)-2-({6-[2-(2,2,2-trifluoroethoxy)phenyl]pyridin-3-yl}oxy)cyclohexyl] propane-2-sulfonamide]: the EC50 was 148 nM.

These data come from US8686043B2, “Heterocyclic sulfonamides, uses and pharmaceutical compositions thereof” (Pfizer Inc., priority 2009, dated 2014).
